Literature values in US5317003A, “Herbicidal compositions comprising glyphosate salts and alkoxylated quaternary amine surfactants” (Monsanto Company, priority 1992, dated 1994).

**Q.** Which solubility in water does the source give for O=C(O)CNCP(=O)(O)O [N-phosphonomethylglycine] here?
**A.** relatively insoluble
